Measured values: the supplement of paper PMC10307832

Compound: CC(=O)c1c(C)c2cnc(Nc3ccc(N4CCNCC4)cn3)nc2n(C2CCCC2)c1=O [Palbociclib] + C[C@]1(O)C[C@@H](c2nc(-c3ccc4ccc(-c5ccccc5)nc4c3)c3c(N)nccn32)C1 [Linsitinib] (partner 1 µM)
Experiment: relative viability (nuclei count vs DMSO), 5 days (fraction); higher = more cells survive
Method in brief: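 Cells from lung cancer lines were seeded into 1536-well plates and, one day later, dosed by pin tool. Treatments were either a single drug or a fixed dose of an anchor drug with five library-drug doses (not always all listed) in √10 steps. After 5 days, nuclei were stained in a one-step fixation (final 0.05% Triton X-100, 1% formaldehyde, 1 ug/ml Hoechst) and counted on 4× images, and relative viability is the treated-to-vehicle nuclei ratio, as the median of duplicate plates.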

Cell Line	relative viability (first compound 0.01 µM)	relative viability (first compound 0.03162 µM)	relative viability (first compound 0.1 µM)	relative viability (first compound 0.3162 µM)	relative viability (first compound 1 µM)
201T	1.01	0.97	0.901	0.938	0.716
A549	0.619	0.38	0.316	0.457	0.274
A-427	1.15	1.08	1.01	0.942	0.806
ABC-1	1.06	0.925	0.666	0.583	0.382
BEN	1.14	0.759	0.618	0.747	0.497
CAL-12T	0.9	0.699	0.768	0.679	0.56
COR-L23	0.9	0.844	0.637	0.552	0.344
COR-L 105	0.987	0.91	0.509	0.571	0.429
Calu-6	0.982	0.921	0.784	0.746	0.578
EBC-1	0.923	0.843	0.647	0.554	0.293
EKVX	1.01	0.786	0.722	0.781	0.492
EMC-BAC-2	0.815	0.709	0.712	0.651	0.594
EPLC-272H	1.15	–	0.988	0.999	0.716
H3255	1.16	0.873	0.844	0.775	0.514
HARA	1.02	0.78	0.83	0.454	0.361
HCC-15	0.966	–	0.832	0.755	0.726
HCC-44	0.661	0.648	0.691	0.679	0.661
HCC-78	0.46	0.329	0.302	0.39	0.273
HCC-366	0.482	–	0.506	0.494	0.344

Cell Line	relative viability (first compound 0.01 µM)	relative viability (first compound 0.03162 µM)	relative viability (first compound 0.1 µM)	relative viability (first compound 0.3162 µM)	relative viability (first compound 1 µM)
HCC-827	0.945	0.879	0.88	0.885	0.71
HOP-62	0.995	–	1.01	0.908	0.692
IA-LM	0.492	0.399	0.395	0.221	0.118
LC-2-ad	0.884	–	0.735	0.611	0.395
LCLC-97TM1	0.185	–	0.167	0.165	0.158
LCLC-103H	1.04	1.15	0.918	1	0.826
LK-2	0.521	0.486	0.468	0.434	0.608
LOU-NH91	1.02	0.79	0.668	0.6	0.605
LU99A	0.587	0.46	0.454	0.355	0.327
LXF-289	0.914	0.959	0.99	0.88	0.734
NCI-H23	0.794	–	0.509	0.46	0.398
NCI-H322M	0.892	0.836	0.718	0.78	0.638
NCI-H358	0.673	0.559	0.354	0.247	0.229
NCI-H441	0.652	0.383	0.483	0.487	0.275
NCI-H460	0.903	0.529	0.483	0.288	0.117
NCI-H520	1.06	0.721	0.661	0.67	0.392
NCI-H596	1.12	0.914	0.95	1.02	1.03
NCI-H647	1.2	1.01	0.89	0.941	0.712
